# Where a name gives a salt, the structure may show the parent alone. Read-outs that look alike come from different tables or passages of the source.
# Assays:
# LEFCH [1] = assay: Example I: postemergence foliar-applied herbicidal mixtures, direct seeded rice, LEFCH; type: in vivo, Leptochloa chinensis (Chinese sprangletop)
# Method: (§6) The soil matrix was contained in plastic pots with a volume of 1 quart and a surface area of 83.6 square centimeters (cm^2). […] The plants were grown for 8-22 days in a greenhouse with an approximate 14 h photoperiod which was maintained at about 29° C. during the day and 26° C. during the night. Nutrients (Peters Excel® 15-5-15 5-Ca 2-Mg and iron chelate) were applied in the irrigation solution as needed and water was added on a regular basis. Supplemental lighting was provided with overhead metal halide 1000-Watt lamps as necessary. The plants were employed for testing when they reached the first through fourth true leaf stage.
# (§7) Treatments consisted of the acid or esters of 4-amino-3-chloro-5-fluoro-6-(4-chloro-2-fluoro-3-methoxy-phenyl)pyridine-2-carboxylic acid (Compound A), each formulated as an SC (suspension concentrate), and various herbicidal components alone and in combination. Forms of compound A were applied on an acid equivalent basis.
# (§8) For treatments comprised of formulated compounds, measured amounts of compounds were placed individually in 25 mL glass vials and diluted in a volume of 1.25% (v/v) Agri-Dex® crop oil concentrated to obtain 12× stock solutions. […] Application solutions were prepared by adding an appropriate amount of each stock solution (e.g., 1 mL) and diluted to the appropriate final concentrations with the addition of 10 mL of an aqueous mixture of 1.25% (v/v) crop oil concentrate so that the final spray solutions contained 1.25+/−0.05% (v/v) crop oil concentrate.
# (§9) All stock solutions and applications solutions were visually inspected for compound compatibility prior to application. Spray solutions were applied to the plant material with an overhead Mandel track sprayer equipped with a 8002E nozzles calibrated to deliver 187 L/ha over an application area of 0.503 m^2 at a spray height of 18 to 20 inches (46 to 50 cm) above average plant canopy height. Control plants were sprayed in the same manner with the solvent blank.
# (§10) The treated plants and control plants were placed in a greenhouse as described above and watered by sub-irrigation to prevent wash-off of the test compounds. After approximately 3 weeks, the condition of the test plants as compared with that of the untreated plants was determined visually and scored on a scale of 0 to 100 percent where 0 corresponds to no injury or growth inhibition and 100 corresponds to complete kill.
# (§11) Colby's equation was used to determine the herbicidal effects expected from the mixtures (Colby, S. R. 1967. Calculation of the synergistic and antagonistic response of herbicide combinations. Weeds 15:20-22).
# (§12) The following equation was used to calculate the expected activity of mixtures containing two active ingredients, A and B: Expected=A+B−(A×B/100)
# (§13) A=observed efficacy of active ingredient A at the same concentration as used in the mixture.
# (§14) B=observed efficacy of active ingredient B at the same concentration as used in the mixture.
# CYPIR = assay: Example I: postemergence foliar-applied herbicidal mixtures, direct seeded rice, CYPIR; type: in vivo, Cyperus iria (rice flatsedge)
# Method: as §6, §7, §8, §9, §10, §11, §12, §13, §14
# ECHCG [2] = assay: Example II: in-water applied herbicidal mixtures, transplanted paddy rice, ECHCG; type: in vivo, Echinochloa crus-galli (barnyardgrass)
# Method: (§1) The prepared mud was dispensed in 365 mL aliquots into 16-ounce (oz.) non-perforated plastic pots with a surface area of 86.59 square centimeters (cm^2) leaving a headspace of 3 centimeters (cm) in each pot Mud was allowed to dry overnight prior to planting or transplanting. Rice seeds were planted in Sun Gro MetroMix® 306 planting mixture, which typically has a pH of 6.0 to 6.8 and an organic matter content of about 30 percent, in plastic plug trays. Seedlings at the second or third leaf stage of growth were transplanted into 840 mL of mud contained in 32-oz. non-perforated plastic pots with a surface area of 86.59 cm^2 4 days prior to herbicide application. […] Nutrients were added as Osmocote® (19:6:12, N:P:K^+ minor nutrients) at 2 g per 16-oz. pot and 4 g per 32-oz. pot.
# (§2) Applications were made by injecting with a pipetter appropriate amounts of the application solutions, individually and sequentially, into the aqueous layer of the paddy. Control plants were treated in the same manner with the solvent blank. Applications were made so that all treated plant material received the same concentrations of acetone and crop oil concentrate.
# CYPRO = assay: Example II: in-water applied herbicidal mixtures, weed control in transplanted paddy rice (greenhouse), CYPRO; type: in vivo, Cyperus rotundus (purple nutsedge)
# Method: as §1, §2
# IPOHE = assay: Example I: postemergence foliar-applied herbicidal mixtures, direct seeded rice, IPOHE; type: in vivo, Ipomoea hederacea (ivyleaf morningglory)
# Method: as §6, §7, §8, §9, §10, §11, §12, §13, §14
# ECHOR = assay: Example II: in-water applied herbicidal mixtures, transplanted paddy rice, ECHOR; type: in vivo, Echinochloa oryzoides (early watergrass); conditions: for pest or weed control at 70 g/ha: 70 gae/ha; for pest or weed control at 140 g/ha: 140 gae/ha
# Method: as §1, §2
# LEFCH [3] = assay: Example II: in-water applied herbicidal mixtures, transplanted paddy rice, LEFCH; type: in vivo, Leptochloa chinensis (Chinese sprangletop)
# Method: as §1, §2
# POLCO = assay: Example IV: postemergence foliar-applied herbicidal mixtures, cereal crops, POLCO; type: in vivo, Polygonum convolvulus (wild buckwheat); conditions: alone, 140 gai/ha, foliar, 20-22 days
# Method: (§3) Seeds of the desired test plant species were planted in Sun Gro MetroMix 306 planting mixture, which typically has a pH of 6.0 to 6.8 and an organic matter content of about 30 percent, in plastic pots with a surface area of 103.2 square centimeters (cm^2). […] The plants were grown for 7-36 days in a greenhouse with an approximate 14 hour photoperiod which was maintained at about 18° C. during the day and 17° C. during the night.
# (§4) Spray solutions of the second cereal herbicide and experimental compound mixtures were prepared by adding the stock solutions to the appropriate amount of dilution solution to form 12 mL spray solution with active ingredients in two- and three-way combinations.
# BRSNN = assay: Example IV: postemergence foliar-applied herbicidal mixtures, cereal crops, BRSNN; type: in vivo, Brassica napus (volunteer canola); conditions: alone, foliar, 20-22 days
# Method: as §3, §4
# VIOTR = assay: Example IV: postemergence foliar-applied herbicidal mixtures, cereal crops, VIOTR; type: in vivo, Viola tricolor (wild pansy); conditions: alone, 140 gai/ha, foliar, 20-22 days
# Method: as §3, §4
# CENMA = assay: Example V: postemergence herbicidal activity of mixtures in forage crops, CENMA; type: in vivo, Centaurea maculosa (spotted knapweed); conditions: alone, foliar, approximately 21 days
# Method: as §3, with “Seeds or root cuttings” for “Seeds”, “MetroMix®” for “MetroMix”, “126.6” for “103.2”, “14-60” for “7-36”, “approximately 28°” for “about 18°”, “24°” for “17°”
# (§5) Spray solutions of the second herbicide or experimental compound mixtures were prepared by adding the stock solutions to the appropriate amount of dilution solution to form 12 mL spray solution with active ingredients in two-way combinations.
# SINAR = assay: Example V: postemergence herbicidal activity of mixtures in forage crops, SINAR; type: in vivo, Sinapis arvensis (wild mustard); conditions: alone, foliar, approximately 21 days
# Method: as §3, with “Seeds or root cuttings” for “Seeds”, “MetroMix®” for “MetroMix”, “126.6” for “103.2”, “14-60” for “7-36”, “approximately 28°” for “about 18°”, “24°” for “17°”
# as §5
# ECHCG [4] = assay: Example I: postemergence foliar-applied herbicidal mixtures, direct seeded rice, ECHCG
# Method: as §6, §7, §8, §9, §10, §11, §12, §13, §14
# DIGSA = assay: Example I: postemergence foliar-applied herbicidal mixtures, direct seeded rice, DIGSA
# Method: as §6, §7, §8, §9, §10, §11, §12, §13, §14
# CASOB = assay: Example V: postemergence herbicidal activity of mixtures in forage crops (greenhouse), CASOB; type: in vivo, Cassia obtusifolia (sicklepod); conditions: alone, 50 gae/ha, foliar, approximately 21 days
# Method: as §3, with “Seeds or root cuttings” for “Seeds”, “MetroMix®” for “MetroMix”, “126.6” for “103.2”, “14-60” for “7-36”, “approximately 28°” for “about 18°”, “24°” for “17°”
# as §5
# CIRAR = assay: Example V: postemergence herbicidal activity of mixtures in forage crops, CIRAR; type: in vivo, Cirsium arvense (Canada thistle); conditions: alone, 70 gae/ha, foliar, approximately 21 days
# Method: as §3, with “Seeds or root cuttings” for “Seeds”, “MetroMix®” for “MetroMix”, “126.6” for “103.2”, “14-60” for “7-36”, “approximately 28°” for “about 18°”, “24°” for “17°”
# as §5
# ECHCO = assay: Example I: postemergence foliar-applied herbicidal mixtures, direct seeded rice, ECHCO
# Method: as §6, §7, §8, §9, §10, §11, §12, §13, §14
# SONAR = assay: Example V: postemergence herbicidal activity of mixtures in forage crops, SONAR; type: in vivo, Sonchus arvensis (field sowthistle); conditions: alone, foliar, approximately 21 days
# Method: as §3, with “Seeds or root cuttings” for “Seeds”, “MetroMix®” for “MetroMix”, “126.6” for “103.2”, “14-60” for “7-36”, “approximately 28°” for “about 18°”, “24°” for “17°”
# as §5
# SCPMA = assay: Example II: in-water applied herbicidal mixtures, transplanted paddy rice, SCPMA; type: in vivo; conditions: 22 DAA
# Method: as §1, §2
# SCPJU = assay: Example II: in-water applied herbicidal mixtures, transplanted paddy rice, SCPJU; type: in vivo, Schoenoplectus juncoides (Japanese bulrush); conditions: 25 DAA
# Method: as §1, §2
# [5] = 280 gai/ha, in-water application
# [6] = Echinochloa oryzoides, 528 h, 22 DAA, read-out: Visual Weed Control (%) Obs
# [7] = Echinochloa oryzoides, 600 h, 25 DAA, read-out: Visual Weed Control (%) Obs
smiles,measurement,setting,value
"COC(=O)c1nc(-c2ccc(Cl)c(OC)c2F)cc(N)c1Cl [Halauxifen-Methyl Ester, methyl 4-amino-3-chloro-6-(4-chloro-2-fluoro-3-methoxyphenyl)picolinate, reference compound]",Visual Weed Control (%) - 20 DAA LEFCH Obs,LEFCH [1]; 2.19 gae/ha,0%
same,Visual Weed Control (%) - 20 DAA LEFCH Obs,LEFCH [1]; 4.38 gae/ha,10%
same,Visual Weed Control (%) - 20 DAA CYPIR Obs,CYPIR; 2.19 gae/ha,25%
same,Visual Weed Control (%) - 20 DAA CYPIR Obs,CYPIR; 4.38 gae/ha,70%
same,Visual Weed Control (%) Obs,"ECHCG [2]; 20 DAA, 4.38 gae/ha",50%
same,Visual Weed Control (%) Obs,"ECHCG [2]; 20 DAA, 8.75 gae/ha",60%
same,Visual Weed Control (%) Obs,"CYPRO; 20 DAA, 4.38 gae/ha",70%
same,Visual Weed Control (%) Obs,"CYPRO; 20 DAA, 8.75 gae/ha",50%
same,Visual Weed Control (%) - 20 DAA IPOHE Obs,IPOHE; 2.19 gae/ha,0%
same,Visual Weed Control (%) - 20 DAA IPOHE Obs,IPOHE; 4.38 gae/ha,0%
same,pest or weed control at 4.38 g/ha,"ECHOR; Echinochloa oryzoides, 480 h, 20 DAA, 4.38 gae/ha, read-out: Visual Weed Control (%) Obs",25%
same,pest or weed control at 8.75 g/ha,"ECHOR; Echinochloa oryzoides, 480 h, 20 DAA, 8.75 gae/ha, read-out: Visual Weed Control (%) Obs",35%
"CCCCC(CC)COC(=O)COc1ccc(Cl)cc1C (stereo not drawn) [MCPA EHE, 2-ethylhexyl 2-(4-chloro-2-methylphenoxy)acetate, reference compound]",Visual Weed Control (%) Obs,"LEFCH [3]; 19 DAA, 280 gai/ha",0%
same,Visual Weed Control (%) - 19 DAA LEFCH Obs,LEFCH [3]; [5],0%
same,Visual Weed Control (%) - 19 DAA ECHOR Obs,ECHOR; [5],30%
"Cc1cc(Cl)ccc1OCC(=O)O [MCPA, 2-(4-chloro-2-methylphenoxy)acetic acid]",POLCO Ob (observed value),POLCO,0%
same,BRSNN Ob (observed value),BRSNN; 140 gai/ha,70%
same,VIOTR Ob (observed value),VIOTR,40%
"Cc1cc(Cl)ccc1O[C@H](C)C(=O)O [Mecoprop, (2R)-2-(4-chloro-2-methylphenoxy)propanoic acid]",BRSNN Ob (observed value),BRSNN; 200 gai/ha,70%
Nc1c(Cl)c(Cl)nc(C(=O)[O-])c1Cl.[K+] [Picloram K^+ Salt],CENMA Obs (observed value),CENMA; 35 gae/ha,20%
same,CENMA Obs (observed value),CENMA; 70 gae/ha,50%
same,SINAR Obs (observed value),SINAR; 35 gae/ha,30%
same,SINAR Obs (observed value),SINAR; 70 gae/ha,70%
"CCCCOCCOC(=O)COc1nc(Cl)c(Cl)cc1Cl [Triclopyr Butotyl Ester, 2-butoxyethyl 2-[(3,5,6-trichloro-2-pyridinyl)oxy]acetate, reference compound]",Visual Weed Control (%) - 23 DAA ECHCG Obs,ECHCG [4]; 35 gae/ha,0%
same,Visual Weed Control (%) - 23 DAA ECHCG Obs,ECHCG [4]; 70 gae/ha,0%
same,Visual Weed Control (%) - 23 DAA ECHCG Obs,ECHCG [4]; 140 gae/ha,15%
same,Visual Weed Control (%) - 23 DAA DIGSA Obs,DIGSA; 35 gae/ha,0%
same,Visual Weed Control (%) - 23 DAA DIGSA Obs,DIGSA; 70 gae/ha,0%
same,Visual Weed Control (%) - 23 DAA DIGSA Obs,DIGSA; 140 gae/ha,0%
same,CASOB Obs (observed value),CASOB,18%
same,CIRAR Obs (observed value),CIRAR,40%
same,Visual Weed Control (%) Obs,"ECHCG [2]; 22 DAA, 70 gae/ha",0%
same,Visual Weed Control (%) Obs,"ECHCG [2]; 22 DAA, 140 gae/ha",0%
same,CENMA Obs (observed value),CENMA; 35 gae/ha,30%
same,CENMA Obs (observed value),CENMA; 70 gae/ha,45%
same,Visual Weed Control (%) - 23 DAA ECHCO Obs,ECHCO; 70 gae/ha,0%
same,Visual Weed Control (%) - 23 DAA ECHCO Obs,ECHCO; 140 gae/ha,0%
same,SONAR Obs (observed value),SONAR; 35 gae/ha,60%
same,SONAR Obs (observed value),SONAR; 70 gae/ha,60%
same,Visual Weed Control (%) Obs,"CYPRO; 22 DAA, 70 gae/ha",0%
same,Visual Weed Control (%) Obs,"CYPRO; 22 DAA, 140 gae/ha",40%
same,Visual Weed Control (%) Obs,SCPMA; 70 gae/ha,50%
same,Visual Weed Control (%) Obs,SCPMA; 140 gae/ha,60%
same,pest or weed control at 70 g/ha,ECHOR; [6],0%
same,pest or weed control at 140 g/ha,ECHOR; [6],0%
"O=C(O)COc1nc(Cl)c(Cl)cc1Cl [Triclopyr TEA Salt, 2-[(3,5,6-trichloro-2-pyridinyl)oxy]acetic acid compound with N,N-diethylethanamine, reference compound]",Visual Weed Control (%) Obs,"ECHCG [2]; 25 DAA, 70 gae/ha",0%
same,Visual Weed Control (%) Obs,"ECHCG [2]; 25 DAA, 140 gae/ha",0%
same,Visual Weed Control (%) Obs,"LEFCH [3]; 25 DAA, 70 gae/ha",0%
same,Visual Weed Control (%) Obs,"LEFCH [3]; 25 DAA, 140 gae/ha",0%
same,Visual Weed Control (%) Obs,SCPJU; 70 gae/ha,20%
same,Visual Weed Control (%) Obs,SCPJU; 140 gae/ha,30%
same,pest or weed control at 280 g/ha,"ECHOR; Echinochloa oryzoides, 456 h, 19 DAA, 280 gae/ha, read-out: Visual Weed Control (%) Obs",35%
same,pest or weed control at 70 g/ha,ECHOR; [7],0%
same,pest or weed control at 140 g/ha,ECHOR; [7],0%

# — patent US8912120B2, “Herbicidal compositions comprising 4-amino-3-chloro-5-fluoro-6-(4-chloro-2-fluoro-3-methoxyphenyl) pyridine-2-carboxylic acid or a derivative thereof and synthetic auxin herbicides” (Dow AgroSciences, LLC., priority 2012, dated 2014)
